Calls of active or inactive are those of the source.
Columns and labels:
[1] = Luminescence Cell-Based Dose Response to Identify Activators of 5'UTR Stem-Loop Driven Prion Protein mRNA Translation in H4-C Neuroglioblastoma Cells. [Related pubchem assays: 1829 (Project Summary), 1814 (Primary HTS)]; type: functional
[2] = Luminescence Cell-Based Dose Confirmation to Identify Activators of 5'UTR Stem-Loop Driven Alpha-Synuclein mRNA Translation in H4 Neuroglioblastoma Cells. [Related pubchem assays: 1829 (Project Summary), 1814 (Primary HTS)]; type: functional
[3] = Luminescence Cell-Based Dose Response HTS to Identify Activators of Luciferase Translation or Activity in H4 […] Cells. [Related pubchem assays: 1829 (Project Summary), 1814 (Primary HTS)]; type: functional
[4] = system: H4; test: Luminescence Cell-Based Dose Response HTS to Identify Activators of 5'UTR Stem-Loop Driven Prion Protein mRNA Translation in H4 Neuroglioblastoma Cells. [Related pubchem assays: 1829 (Project Summary), 1814 (Primary HTS)]; type: functional; conditions: Homo sapiens
[5] = Luminescence Cell-Based Dose Response to Identify Activators of Luciferase Translation or Activity in H4-C Neuroglioblastoma Cells. [Related pubchem assays: 1829 (Project Summary), 1814 (Primary HTS)]; type: functional
[6] = target: T1, Estrogen receptor (Homo sapiens, UniProt P03372); test: ERα coactivator recruitment enhancers – biochemical, TR-FRET, ERα LBD, dose response (AID 737)
T1 sequence (P03372 whole entry): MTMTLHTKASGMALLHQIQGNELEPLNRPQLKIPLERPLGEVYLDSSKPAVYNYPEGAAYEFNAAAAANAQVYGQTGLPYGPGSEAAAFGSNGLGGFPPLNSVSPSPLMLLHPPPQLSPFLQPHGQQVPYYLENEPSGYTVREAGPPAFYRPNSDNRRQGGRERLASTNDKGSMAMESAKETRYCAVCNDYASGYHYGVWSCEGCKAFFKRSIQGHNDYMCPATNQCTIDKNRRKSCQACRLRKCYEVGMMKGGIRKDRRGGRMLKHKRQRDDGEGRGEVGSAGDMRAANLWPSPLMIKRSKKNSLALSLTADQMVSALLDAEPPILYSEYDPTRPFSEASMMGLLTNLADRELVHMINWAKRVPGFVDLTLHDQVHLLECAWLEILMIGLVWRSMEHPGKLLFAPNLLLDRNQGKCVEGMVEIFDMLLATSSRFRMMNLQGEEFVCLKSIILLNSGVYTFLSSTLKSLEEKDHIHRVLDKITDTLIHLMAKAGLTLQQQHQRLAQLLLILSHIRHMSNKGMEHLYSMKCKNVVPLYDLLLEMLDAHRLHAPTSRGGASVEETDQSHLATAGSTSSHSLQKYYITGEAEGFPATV

[7] = viability loss in THP-1 monocytes – THP-1 cells, cytotoxicity control for Vif-APOBEC3G degradation inhibitor project, dose response (AID 1117359); type: functional; conditions: THP-1
[8] = target: T2, Mannose-6-phosphate isomerase (Homo sapiens, UniProt P34949); test: MPI enzyme activity inhibition – biochemical, fluorescence intensity, coupled assay, primary screen (AID 1209)
T2 sequence (P34949 whole entry): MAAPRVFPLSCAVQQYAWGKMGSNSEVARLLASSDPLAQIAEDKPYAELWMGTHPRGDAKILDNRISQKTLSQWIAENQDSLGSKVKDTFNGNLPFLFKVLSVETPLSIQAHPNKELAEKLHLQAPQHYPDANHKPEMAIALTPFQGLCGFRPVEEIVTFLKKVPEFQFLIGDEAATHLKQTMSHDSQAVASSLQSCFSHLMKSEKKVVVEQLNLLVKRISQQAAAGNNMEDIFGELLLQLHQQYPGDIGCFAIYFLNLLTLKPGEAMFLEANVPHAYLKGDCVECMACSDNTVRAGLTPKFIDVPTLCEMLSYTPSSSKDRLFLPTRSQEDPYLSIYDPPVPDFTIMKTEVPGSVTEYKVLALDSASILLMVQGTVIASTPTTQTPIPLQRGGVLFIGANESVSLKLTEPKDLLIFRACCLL

[9] = target: T3, Protein Tat (Human immunodeficiency virus type 1 group M subtype B (isolate HXB2)(HIV-1), UniProt P04608); type: functional;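 further: tat binding to TAR RNA read out by fluorescence polarization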
T3 sequence (P04608 whole entry): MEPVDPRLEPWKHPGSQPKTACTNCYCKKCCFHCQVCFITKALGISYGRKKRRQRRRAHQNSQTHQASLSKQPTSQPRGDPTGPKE

[10] = NIH-3T3 fibroblast cytotoxicity, dose response, cytotoxicity control, cell-based, fluorescence, Alamar Blue, secondary assay (AID 2327); type: functional;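 further: NIH-3T3 mouse fibroblasts cultured with fluconazole at 8 µg/mL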
[11] = target: Potassium voltage-gated channel subfamily KQT member 2 (Rattus norvegicus, UniProt O88943, W236L); test: potentiation of rat KCNQ2 current – cell-based, automated electrophysiology, mechanism study for KCNQ2 potentiator project, dose response (AID 2603); type: functional
[12] = target: Sphingosine 1-phosphate receptor 2 (Homo sapiens, UniProt O95136); test: Dose Response Cell Based Assay for Agonists of the S1P2 Receptor of Purchased Analogues. [Related pubchem assays: 729, 843, 854, 736 ]; type: functional
[13] = target: NS3 (Hepatitis C virus, UniProt A3EZJ3); test: NS3h DNA-binding inhibition IC50 – biochemical, fluorescence polarization, ChemBridge library, dose response (AID 743264)
[14] = target: T4, Bcl-2-like protein 10 (Homo sapiens, UniProt Q9HD36); test: Concentration-response of Bcl-B inhibitors by biochemical FP with TR3 (AID 1243); type: functional
T4 sequence (Q9HD36 whole entry): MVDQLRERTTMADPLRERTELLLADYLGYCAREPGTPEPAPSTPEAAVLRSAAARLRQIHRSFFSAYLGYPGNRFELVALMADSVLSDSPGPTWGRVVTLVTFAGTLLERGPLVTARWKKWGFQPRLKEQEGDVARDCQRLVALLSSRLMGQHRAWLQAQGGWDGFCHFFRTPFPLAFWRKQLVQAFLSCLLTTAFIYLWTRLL

[15] = target: Potassium voltage-gated channel subfamily KQT member 2 (Rattus norvegicus, UniProt O88943); test: blockers of KCNQ2 channel current – cell-based, automated electrophysiology, set II, rat KCNQ2, dose response (AID 588637); type: functional
[16] = target: T5, Neuropeptide Y receptor type 1 (Homo sapiens, UniProt P25929); test: IC50 of human NPY-Y1 blockers – cell-based, dose response (AID 1277); type: functional
[17] = target: T6, Neuropeptide Y receptor type 2 (Homo sapiens, UniProt P49146); test: IC50 for human NPY-Y2 blockade – cell-based, counter-screen for NPY-Y1 antagonist project, dose response (AID 1278); type: functional
[18] = cells
[19] = system: Vero; test: cells; type: functional, cell-based; conditions: Chlorocebus sabaeus
[20] = viability of uninfected HEp-2 cells – cell-based, HTS, cytotoxicity control for RSV inhibitor project, dose response (AID 2410); type: functional; conditions: human respiratory syncytial virus
[21] = Luminescence Cell-Based Dose Confirmation HTS to Identify Activators of 5'UTR Stem-Loop Driven Alpha-Synuclein mRNA Translation in H4 Neuroglioblastoma Cells. [Related pubchem assays: 1829 (Project Summary), 1814 (Primary HTS)]; type: functional
[22] = target: T6, Neuropeptide Y receptor type 2; type: functional, cell-based
[23] = target: T5, Neuropeptide Y receptor type 1; type: functional
[24] = target: T7, Short transient receptor potential channel 4 (Mus musculus, UniProt Q9QUQ5); test: block of DAMGO-driven TRPC4 calcium entry – cell-based, HEK293 TRPC4/mu-opioid, Fluo-4 calcium, dose response (AID 434942); type: functional;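 further: potency of inhibitors blocking the TRPC4 calcium response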
T7 sequence (Q9QUQ5 whole entry): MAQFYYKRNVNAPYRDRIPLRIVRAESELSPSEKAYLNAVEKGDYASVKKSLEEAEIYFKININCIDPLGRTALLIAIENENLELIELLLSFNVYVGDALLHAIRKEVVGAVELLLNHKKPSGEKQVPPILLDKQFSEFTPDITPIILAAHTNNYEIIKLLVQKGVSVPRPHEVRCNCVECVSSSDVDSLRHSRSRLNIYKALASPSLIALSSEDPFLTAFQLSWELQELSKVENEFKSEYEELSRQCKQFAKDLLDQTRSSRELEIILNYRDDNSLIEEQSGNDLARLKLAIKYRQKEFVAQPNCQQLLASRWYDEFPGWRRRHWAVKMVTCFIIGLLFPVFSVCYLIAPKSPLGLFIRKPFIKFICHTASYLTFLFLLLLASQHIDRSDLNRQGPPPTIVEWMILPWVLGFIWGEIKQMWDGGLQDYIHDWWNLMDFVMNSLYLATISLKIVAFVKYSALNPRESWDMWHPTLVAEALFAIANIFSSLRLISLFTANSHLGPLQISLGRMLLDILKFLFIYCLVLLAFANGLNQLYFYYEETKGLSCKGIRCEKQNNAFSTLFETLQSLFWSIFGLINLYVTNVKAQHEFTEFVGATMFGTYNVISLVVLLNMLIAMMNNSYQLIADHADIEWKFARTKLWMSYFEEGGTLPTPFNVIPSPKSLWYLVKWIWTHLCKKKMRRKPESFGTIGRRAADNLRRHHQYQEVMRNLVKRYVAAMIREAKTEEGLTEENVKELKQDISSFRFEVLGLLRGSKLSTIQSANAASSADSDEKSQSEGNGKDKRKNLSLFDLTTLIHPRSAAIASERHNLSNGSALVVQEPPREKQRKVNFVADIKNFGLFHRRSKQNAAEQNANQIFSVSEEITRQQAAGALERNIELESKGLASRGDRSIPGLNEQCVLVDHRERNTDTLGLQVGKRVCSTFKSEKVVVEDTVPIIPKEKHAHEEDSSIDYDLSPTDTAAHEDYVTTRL

[25] = target: Procathepsin L (Homo sapiens, UniProt P07711); test: CTSL1 protease inhibition – biochemical, QFRET, 1536-well, counter-screen for M1/M17 aminopeptidase inhibitor project, dose response (AID 2214)
[26] = target: T8, Leucine aminopeptidase (Plasmodium falciparum 3D7, UniProt Q8IL11); test: P. falciparum M17LAP inhibitors, primary screen, biochemical, fluorogenic H-Leu-NHMec substrate, 1536-well (AID 1619); type: functional
T8 sequence (Q8IL11 whole entry): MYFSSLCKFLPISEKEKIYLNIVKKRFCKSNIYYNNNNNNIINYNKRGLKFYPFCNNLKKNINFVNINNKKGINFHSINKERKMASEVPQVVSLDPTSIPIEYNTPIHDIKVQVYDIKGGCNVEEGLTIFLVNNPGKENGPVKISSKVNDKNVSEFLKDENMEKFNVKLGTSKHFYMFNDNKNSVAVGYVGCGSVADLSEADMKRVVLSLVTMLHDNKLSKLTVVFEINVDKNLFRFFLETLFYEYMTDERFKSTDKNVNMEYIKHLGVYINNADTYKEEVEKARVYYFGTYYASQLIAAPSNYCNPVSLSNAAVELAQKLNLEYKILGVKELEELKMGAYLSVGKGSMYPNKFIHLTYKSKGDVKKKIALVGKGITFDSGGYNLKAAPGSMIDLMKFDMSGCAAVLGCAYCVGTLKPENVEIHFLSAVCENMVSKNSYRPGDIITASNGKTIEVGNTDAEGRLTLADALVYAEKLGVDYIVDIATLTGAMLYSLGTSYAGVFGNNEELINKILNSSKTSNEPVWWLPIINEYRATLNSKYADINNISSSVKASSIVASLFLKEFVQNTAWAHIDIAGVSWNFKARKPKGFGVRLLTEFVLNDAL

[27] = target: Aspartyl aminopeptidase (Plasmodium falciparum 3D7, UniProt Q8I2J3); test: Counterscreen for inhibitors of M1 and M17 aminopeptidases: QFRET-based biochemical high throughput dose response assay for inhibitors of the Plasmodium falciparum M18 Aspartyl Aminopeptidase (PFM18AAP). [Related PubChem assays: 1619 (Screening assay (M17LAP inhibitors).), 1445 (Screening assay (M1AAP inhibitors).)]
Sequence of Aspartyl aminopeptidase (Q8I2J3 whole entry): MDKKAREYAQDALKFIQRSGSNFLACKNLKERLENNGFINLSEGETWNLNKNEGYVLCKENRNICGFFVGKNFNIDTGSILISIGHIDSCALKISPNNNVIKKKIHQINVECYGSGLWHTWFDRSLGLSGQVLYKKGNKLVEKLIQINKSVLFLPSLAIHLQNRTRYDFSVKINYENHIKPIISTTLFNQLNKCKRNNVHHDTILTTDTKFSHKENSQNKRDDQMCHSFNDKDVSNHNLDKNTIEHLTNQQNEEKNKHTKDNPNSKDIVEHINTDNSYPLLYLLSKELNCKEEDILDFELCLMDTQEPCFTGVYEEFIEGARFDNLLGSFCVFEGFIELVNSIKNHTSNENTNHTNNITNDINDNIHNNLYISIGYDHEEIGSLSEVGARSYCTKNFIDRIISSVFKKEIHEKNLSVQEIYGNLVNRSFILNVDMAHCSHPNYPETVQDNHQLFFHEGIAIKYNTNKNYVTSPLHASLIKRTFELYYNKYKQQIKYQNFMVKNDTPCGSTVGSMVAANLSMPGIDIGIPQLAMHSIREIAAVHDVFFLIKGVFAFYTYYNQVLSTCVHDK

T6 sequence (P49146 whole entry): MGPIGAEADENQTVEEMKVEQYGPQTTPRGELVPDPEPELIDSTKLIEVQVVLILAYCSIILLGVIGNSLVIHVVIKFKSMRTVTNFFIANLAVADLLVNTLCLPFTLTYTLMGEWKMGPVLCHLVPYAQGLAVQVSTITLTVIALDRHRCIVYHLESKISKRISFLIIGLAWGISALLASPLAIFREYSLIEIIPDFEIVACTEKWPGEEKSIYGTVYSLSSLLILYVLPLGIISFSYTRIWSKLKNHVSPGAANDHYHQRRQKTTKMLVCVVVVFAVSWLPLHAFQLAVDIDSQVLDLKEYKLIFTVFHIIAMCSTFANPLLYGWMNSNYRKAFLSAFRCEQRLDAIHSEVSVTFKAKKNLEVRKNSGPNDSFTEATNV
T5 sequence (P25929 whole entry): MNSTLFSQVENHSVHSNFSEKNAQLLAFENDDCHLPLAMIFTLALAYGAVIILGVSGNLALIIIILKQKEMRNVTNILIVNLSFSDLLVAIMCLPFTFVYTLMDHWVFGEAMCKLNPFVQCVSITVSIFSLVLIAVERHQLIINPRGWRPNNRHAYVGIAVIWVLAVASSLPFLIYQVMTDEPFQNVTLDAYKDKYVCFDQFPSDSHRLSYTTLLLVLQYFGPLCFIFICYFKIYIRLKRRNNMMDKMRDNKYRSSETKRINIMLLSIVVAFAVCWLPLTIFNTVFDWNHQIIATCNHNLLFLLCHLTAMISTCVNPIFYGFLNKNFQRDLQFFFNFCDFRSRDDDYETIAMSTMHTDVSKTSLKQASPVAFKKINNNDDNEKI
Sequence of NS3 (A3EZJ3 whole entry): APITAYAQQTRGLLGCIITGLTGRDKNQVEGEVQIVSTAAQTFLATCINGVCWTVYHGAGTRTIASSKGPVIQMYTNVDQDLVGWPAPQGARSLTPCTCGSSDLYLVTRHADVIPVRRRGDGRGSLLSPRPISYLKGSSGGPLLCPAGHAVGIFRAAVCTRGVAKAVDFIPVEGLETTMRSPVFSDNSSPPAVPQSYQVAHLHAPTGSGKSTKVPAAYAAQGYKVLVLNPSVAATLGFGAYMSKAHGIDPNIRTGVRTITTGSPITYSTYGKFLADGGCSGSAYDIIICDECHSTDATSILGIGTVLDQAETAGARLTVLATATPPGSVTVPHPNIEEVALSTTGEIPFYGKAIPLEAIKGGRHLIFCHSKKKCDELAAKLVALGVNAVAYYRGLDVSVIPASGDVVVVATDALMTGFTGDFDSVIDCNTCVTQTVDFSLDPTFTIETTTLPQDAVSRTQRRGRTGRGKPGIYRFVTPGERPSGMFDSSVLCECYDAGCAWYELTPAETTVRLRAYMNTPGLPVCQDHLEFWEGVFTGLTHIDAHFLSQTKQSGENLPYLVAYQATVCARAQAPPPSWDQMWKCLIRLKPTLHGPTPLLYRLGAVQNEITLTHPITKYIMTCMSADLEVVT
Sequence of Potassium voltage-gated channel subfamily KQT member 2 (Rattus norvegicus, UniProt O88943) (O88943 whole entry): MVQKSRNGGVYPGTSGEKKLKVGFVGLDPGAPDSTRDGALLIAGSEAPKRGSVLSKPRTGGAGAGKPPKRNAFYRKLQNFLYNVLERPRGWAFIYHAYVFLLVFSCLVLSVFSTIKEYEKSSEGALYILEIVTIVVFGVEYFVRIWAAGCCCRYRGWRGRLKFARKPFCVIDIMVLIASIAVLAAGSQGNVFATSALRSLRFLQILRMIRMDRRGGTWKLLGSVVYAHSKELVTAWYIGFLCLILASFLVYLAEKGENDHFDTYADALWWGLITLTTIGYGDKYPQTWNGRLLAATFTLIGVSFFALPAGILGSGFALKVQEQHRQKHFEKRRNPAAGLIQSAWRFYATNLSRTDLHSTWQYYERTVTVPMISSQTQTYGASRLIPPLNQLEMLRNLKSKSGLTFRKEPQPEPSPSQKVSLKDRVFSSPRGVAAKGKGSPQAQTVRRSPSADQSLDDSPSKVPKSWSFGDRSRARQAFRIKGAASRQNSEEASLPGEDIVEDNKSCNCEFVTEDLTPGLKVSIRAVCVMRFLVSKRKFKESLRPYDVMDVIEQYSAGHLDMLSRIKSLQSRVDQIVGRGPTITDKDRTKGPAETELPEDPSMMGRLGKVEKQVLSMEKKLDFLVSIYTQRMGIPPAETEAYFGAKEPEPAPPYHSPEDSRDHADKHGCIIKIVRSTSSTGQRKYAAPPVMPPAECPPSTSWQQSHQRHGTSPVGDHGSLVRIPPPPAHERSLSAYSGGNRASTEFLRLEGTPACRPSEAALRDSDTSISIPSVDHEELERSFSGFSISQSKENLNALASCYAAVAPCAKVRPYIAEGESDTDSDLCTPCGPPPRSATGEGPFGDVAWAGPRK
Sequence of Sphingosine 1-phosphate receptor 2 (O95136 whole entry): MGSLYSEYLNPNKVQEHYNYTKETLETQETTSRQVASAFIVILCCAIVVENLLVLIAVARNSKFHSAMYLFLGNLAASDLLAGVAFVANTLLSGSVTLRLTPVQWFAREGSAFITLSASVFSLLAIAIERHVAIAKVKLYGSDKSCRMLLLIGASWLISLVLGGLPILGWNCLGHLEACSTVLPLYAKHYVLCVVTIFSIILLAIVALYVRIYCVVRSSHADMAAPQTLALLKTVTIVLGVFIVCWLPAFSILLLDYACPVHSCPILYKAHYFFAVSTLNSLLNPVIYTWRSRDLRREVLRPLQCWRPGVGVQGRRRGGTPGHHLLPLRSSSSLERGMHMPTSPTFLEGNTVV
Sequence of Procathepsin L (P07711 whole entry): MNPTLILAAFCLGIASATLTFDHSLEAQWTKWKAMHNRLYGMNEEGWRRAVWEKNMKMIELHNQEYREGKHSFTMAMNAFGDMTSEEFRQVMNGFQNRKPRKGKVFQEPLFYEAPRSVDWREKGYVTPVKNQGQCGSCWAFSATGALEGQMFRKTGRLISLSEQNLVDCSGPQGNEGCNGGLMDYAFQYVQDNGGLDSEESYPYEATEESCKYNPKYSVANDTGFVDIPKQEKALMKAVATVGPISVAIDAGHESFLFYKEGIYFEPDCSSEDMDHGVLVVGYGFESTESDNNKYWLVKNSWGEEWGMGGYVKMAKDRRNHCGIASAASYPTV
Sequence of Potassium voltage-gated channel subfamily KQT member 2 (Rattus norvegicus, UniProt O88943, W236L) (O88943 whole entry W236L): as the sequence (O88943 whole entry) above, with W236L counted along it

O=C(Nc1ccc2oc(=O)ccc2c1)c1cc2ccccc2o1
EC50 [1]: 579 nM (active) | EC50 [2]: 304 nM (active) | EC50 [3]: < 0.1 µM (active) | EC50 [4]: > 120 µM (not active) | EC50 [5]: 317 nM (active)

COc1ccc(C(=O)Nc2nc(O)c3cc(OC)c(OC)cc3n2)cc1
EC50 [6]: 13.3 µM (not active)

COc1ccc(OC)c(Nc2nc(-c3ccc(O)c(O)c3)cs2)c1
CC50 [7]: 9.32 µM (active) | IC50 [8]: > 50 µM (not active) | IC50 [9]: > 100 µM (inconclusive) | EC50 [10]: 6.89 µM (active)

CCCCC1CCC(C(=O)NCC(c2ccco2)N2CCOCC2)CC1 (centres undefined)
EC50 [11]: 920 nM (active)

CC(=O)Nc1ccc(SCC(=O)c2cc(C)n(Cc3ccccc3)c2C)cc1
EC50 [12]: > 30 µM (not active)

Cc1ccc(C)n1-c1ccc(OCC(=O)O)cc1
IC50 [13]: 36 µM (inactive) | EC50 [14]: 8.75 µM (active)

CCCCOc1cccc(OCCCC)c1C(=O)Nc1cc(C)on1
IC50 [15]: 4.03 µM (active) | IC50 [16]: > 35 µM (not active) | IC50 [17]: > 35 µM (not active)

O=C(Nc1ccc(N2CCCCC2)c(Cl)c1)c1cccnc1
IC50 [18]: 13.6 µM (active) | IC50 [19]: 8.75 µM (active) | CC50 [20]: 15.4 µM (active) | EC50 [3]: 6.12 µM (active) | EC50 [4]: > 120 µM (not active) | EC50 [21]: > 120 µM (not active)

COc1ccc(NC(=O)CSc2nc3ccccc3c(=O)n2CCCN2CCCCC2)c(OC)c1
IC50 [22]: 14.7 µM (not active) | IC50 [23]: 7.62 µM (active)

N#Cc1c(NC(=O)C2CC(Cl)=CCC2C(=O)O)sc2c1CCCCC2 (centres undefined)
EC50 [24]: 4.73 µM (active) | IC50 [25]: > 59.6 µM (not active) | IC50 [26]: < 1 µM (active) | IC50 [27]: > 73.5 µM (not active)

Reference: ChEMBL document CHEMBL1201862, “PubChem BioAssay data set” (2004)
